According to patent US20100273205A1, “Magnetic resonance imaging contrast agents” (priority 2005, published 2010):

Test system: formalin-fixed visual cortex (gray and white matter)
Test: LFB relaxation enhancement, inversion-recovery spin-echo and multi-echo spin-echo MR at 14T
Parameters: species or system human
Conditions: LFB in 95% ethanol then Li2CO3, versus formalin control
Description: Formalin-fixed samples of visual cortex, approximately 1 cm in thickness, were immersed in a mixture of LFB dissolved in a solvent of 95% ethanol (500 mg LFB in 50 ml ethanol) for durations between 48 hours and 3 months. Following LFB staining, the tissue was rinsed in 70% ethanol, rinsed in distilled water, and then immersed in an aqueous solution of lithium carbonate(Li2CO3) (0.25 g Li2CO3 in 500 mL water) until gray-white matter contrast had increased, ranging between approximately 5 minutes and 24 hours. Next, the tissue was rinsed twice more in 70% ethanol and lastly in distilled water. Additional control samples were prepared with 1) formalin only or 2) 95% ethanol followed by immersion in Li2CO3.
Tissue samples were blotted and then immersed in perfluoropolyether (Fomblin, Ausimont USA, Thorofare, N.J.) in a low-pressure environment. […] The low-pressure environment is used to remove artifact-inducing air bubbles from within the tissue.
Data was acquired using a 10 mm birdcage coil in a vertical bore 14T magnet (Magnex Scientific, Oxford, England), with an 89-mm bore and 100 G/cm gradient coil. An inversion-recovery prepared spin-echo sequence and a multi-echo spin-echo sequence were used to determine T1 and T2, respectively. Parameters were estimated in three regions of interest (ROIs), outer gray matter (GMo), inner gray matter (GMi), and white matter (WM), using a nonlinear least-squares fitting routine using the following equations, a:
SIIR−SE=Mo(1−2αe^−TIIT^1)SISE∝Moe^−TEIT^2
where α represents flip angle deviation from 180° and Mo is the equilibrium magnetization.

Substance: Luxol fast blue [LFB]
- decrease of T1 in inner gray matter (GMi): 41%
- decrease of T1 in outer gray matter (GMo): 30%
- decrease of T1 in white matter (WM): 47%
